Measurements published in patent US20150057317A1, “GABR-A2 DIAGNOSTIC” (AstraZeneca AB, priority 2011, published 2015).

Legend:
[1] = system: patients with depression (poor responders to medications used in the treatment of depression); experiment: Phase II study in depression, MADRS response by GABR-A2 SNP genotype; format: in vivo, human; settings: for Additive genetic effect of minor allele on change in MADRS total score: treatment group
Description: Genomic DNA samples were collected from individuals enrolled in a Phase 11 study of COMPOUND A (total number of patients in the study was 152). The Phase II study was designed to measure the efficacy of COMPOUND A in the treatment of depression. Patients were selected for enrolment in the aforementioned Phase II study on the basis of their prior treatment history which defined them as poor responders to medications used in the treatment of depression. Common genetic variations (single nucleotide polymorphisms, SNPs) in genes encoding brain derived neurotrophic factor (BDNF) and the alpha-2 subunit of the GABAA receptor (GABR-A2) were tested using TaqMan® assays to measure their influence on the response to treatment for depression with COMPOUND A (an N-methyl-D-aspartate (NMDA) antagonist). Montgomery-Åsberg Depression Rating Scale (MADRS; Montgomery SA, Asberg M (April 1979). “A new depression scale designed to be sensitive to change”. British Journal of Psychiatry 134 (4): 382-89) was used as a measurement of treatment response. Thirty-two SNPs were selected for genotyping in GABR-A2 and six SNPs in BDNF.
However, the results from the GABR-A2 gene did indicate an influence on change in MADRS from baseline for a number of SNPs, with the rs3756007 SNP showing the strongest association. Table 1 lists those genetic variations tested for which, on average, the minor allele positively influenced change in MADRS after treatment with COMPOUND A. The P value from the patients treated with the drug (treatment group) is also shown (therapeutic_pvalue).
TaqMan® assays were used to detect the particular SNPs within the target genes. Each TaqMan® assay is specific for a given mutation or allele, i.e. designed to detect an alternate base relative to another base at a given position. each TaqMan® assay contains sequence-specific forward and reverse primers to amplify the polymorphic sequence of interest in the target gene along with TaqMan® probes labelled with different fluorescent tags to identify the target base (SNP). The TaqMan® assays were ordered from Applied Biosystems® and where possible Pre-Designed SNP Genotyping Assays were used. Each of the GABR-A2 SNPs showing association with an influence on the response to treatment for depression with COMPOUND A were detected using the commercially available Pre-Designed SNP Genotyping Assays.
For each SNP assay, genomic DNA was extracted from the clinical sample and the TaqMan® assay was carried out using the primers in Table 2. For the TaqMan® reaction approximately 10 ng of genomic DNA was used, in a total reaction volume of 2 ul. The reaction used TaqMan® Genotyping Master Mix (Applied Biosystems®, part number 4381657). The TaqMan® Genotyping Master Mix was diluted 1:1 with deionised water and the TaqMan® assay used at 80× concentration. The reaction was then securely sealed before Thermal Cycling. Cycle conditions: 95° C. for 10 minutes followed by 40 cycles of 92° C. for 15 seconds, 60° C. for 60 seconds in a Thermal Cycler instrument (KBiosystems DT-108 Thermal Cycler). The plate was then analysed on the Applied Biosystems® 7900HT Sequence Detection System using the pre-programmed “Allelic Discrimination” analysis in the Applied Biosystems® SDS v2.4 Software.

[2] = target: NR1A/2A subtype of the NMDA receptor (Homo sapiens, UniProt Q05586+Q12879); settings: cited from earlier work
Chain of NR1A/2A subtype of the NMDA receptor (Q12879 23-1464, other chains not shown): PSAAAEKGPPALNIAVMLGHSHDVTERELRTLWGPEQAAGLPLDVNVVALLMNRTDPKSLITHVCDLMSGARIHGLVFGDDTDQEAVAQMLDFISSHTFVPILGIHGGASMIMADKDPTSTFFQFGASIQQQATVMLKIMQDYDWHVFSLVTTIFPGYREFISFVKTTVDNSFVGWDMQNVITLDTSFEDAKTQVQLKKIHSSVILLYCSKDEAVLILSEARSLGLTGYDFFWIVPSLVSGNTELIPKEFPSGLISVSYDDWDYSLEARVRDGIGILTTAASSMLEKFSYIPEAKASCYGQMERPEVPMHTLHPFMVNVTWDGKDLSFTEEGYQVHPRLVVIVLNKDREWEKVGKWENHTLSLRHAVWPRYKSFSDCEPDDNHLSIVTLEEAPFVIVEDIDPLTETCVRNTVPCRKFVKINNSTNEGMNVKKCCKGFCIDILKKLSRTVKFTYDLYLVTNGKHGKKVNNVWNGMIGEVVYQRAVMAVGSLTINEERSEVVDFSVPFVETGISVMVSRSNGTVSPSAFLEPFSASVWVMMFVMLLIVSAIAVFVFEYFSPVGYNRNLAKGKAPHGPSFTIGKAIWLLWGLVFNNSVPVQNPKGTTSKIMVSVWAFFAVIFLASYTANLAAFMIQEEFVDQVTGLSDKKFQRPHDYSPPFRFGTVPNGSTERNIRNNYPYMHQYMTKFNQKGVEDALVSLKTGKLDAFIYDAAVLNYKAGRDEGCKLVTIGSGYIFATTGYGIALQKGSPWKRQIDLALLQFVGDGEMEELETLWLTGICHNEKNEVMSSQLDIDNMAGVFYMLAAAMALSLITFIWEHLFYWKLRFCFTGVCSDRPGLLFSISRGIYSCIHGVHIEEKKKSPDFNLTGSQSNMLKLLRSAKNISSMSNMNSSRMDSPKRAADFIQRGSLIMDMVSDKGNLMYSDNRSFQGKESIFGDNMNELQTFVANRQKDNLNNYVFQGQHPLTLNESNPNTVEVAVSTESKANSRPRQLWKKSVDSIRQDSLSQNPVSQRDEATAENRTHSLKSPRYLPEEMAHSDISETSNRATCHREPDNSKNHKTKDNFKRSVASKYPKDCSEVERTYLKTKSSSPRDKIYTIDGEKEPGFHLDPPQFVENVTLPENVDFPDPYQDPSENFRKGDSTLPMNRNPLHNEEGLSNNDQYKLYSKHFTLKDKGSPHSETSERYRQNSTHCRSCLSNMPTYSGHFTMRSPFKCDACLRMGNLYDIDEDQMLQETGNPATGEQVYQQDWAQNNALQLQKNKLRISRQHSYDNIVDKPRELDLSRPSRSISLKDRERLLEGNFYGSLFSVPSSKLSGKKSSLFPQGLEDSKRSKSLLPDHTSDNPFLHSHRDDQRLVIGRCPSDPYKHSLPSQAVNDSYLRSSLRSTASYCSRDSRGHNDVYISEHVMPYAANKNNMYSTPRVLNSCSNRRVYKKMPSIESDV

[3] = system: human volunteers and patients; settings: cited from earlier work
patients with MDD = settings: cited from earlier work

Row | SMILES | Additive genetic effect of minor allele on change in MADRS total score ([1]; SNP rs1372472, minor allele T, therapeutic P value 0.0108) | Additive genetic effect of minor allele on change in MADRS total score ([1]; SNP rs3756007, minor allele C, therapeutic P value 0.0021) | Additive genetic effect of minor allele on change in MADRS total score ([1]; SNP rs11503016, minor allele T, therapeutic P value 0.0374) | Additive genetic effect of minor allele on change in MADRS total score ([1]; SNP rs17537359, minor allele C, therapeutic P value 0.0038) | improvement in minor allele carriers versus major allele homozygote ([1]; minor allele at rs3756007, rs11503016, rs17537359 and rs1372472, on average) | IC50 [2] | propensity for causing psychotomimetic effects ([3]; compared with effects found with ketamine exposure) | tolerability ([3]; more than 500 human volunteers and patients) | antidepressant effects (patients with MDD)
1 | N[C@@H](Cc1ccccn1)c1ccccc1 [COMPOUND A, (S)-1-phenyl-2-(pyridin-2-yl)ethanamine] | −4.83 | −12.84 | −5.33 | −9.40 | greater improvement | 350 nM | little propensity | very well tolerated | –
2 | CNC1(c2ccccc2Cl)CCCCC1=O (stereo not drawn) [ketamine] | – | – | – | – | – | – | – | – | rapid antidepressant effects
